In patent US20100256109A1, “Azetidines As EP2 Antagonists” (priority 2007, published 2010) one finds Ki data, which are given here for 30 molecules.

T1 sequence (P43116 whole entry): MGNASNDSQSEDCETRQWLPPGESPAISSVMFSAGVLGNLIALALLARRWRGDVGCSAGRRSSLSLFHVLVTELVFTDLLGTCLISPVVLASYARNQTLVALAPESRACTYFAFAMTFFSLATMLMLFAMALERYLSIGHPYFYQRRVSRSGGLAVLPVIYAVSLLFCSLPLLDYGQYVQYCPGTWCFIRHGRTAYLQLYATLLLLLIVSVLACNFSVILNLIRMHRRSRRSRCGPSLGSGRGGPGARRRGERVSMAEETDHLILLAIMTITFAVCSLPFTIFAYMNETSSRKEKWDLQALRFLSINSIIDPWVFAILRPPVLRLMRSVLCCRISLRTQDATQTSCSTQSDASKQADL

This experiment addresses T1, recombinant human EP-2 receptor (Homo sapiens, UniProt P43116).
T1 construct: stably transfected with full length cDNA encoding human Prostaglandin E2; expressed in transfected cells
The experiment in a line: In vitro antagonist potency against recombinant human prostaglandin E2 (EP-2) receptor in CHO cells (cAMP). The class given is cell-based. As to conditions: CHO cells expressing recombinant human EP-2 receptor, stimulated with PGE2 5 nM; cAMP readout; Ki from IC50 by Cheng-Prusoff; read-out: EP2 Ki. The procedure:
1.0 Measurement of In Vitro Antagonist Potency (IC50) of Compounds Against Recombinant Human Prostaglandin E2 Receptor in CHO Cells.
The prostaglandin E2 (EP-2) receptor is Gs coupled and agonism of the receptor by PGE2 results in activation of intracellular adenylate cyclase enzymes that synthesise the second messenger signalling molecule, adenosine 3′,5′-cyclic monophosphate (cAMP). CHO cells expressing the recombinant human EP-2 receptor are stimulated with PGE2 (5 nM) equivalent to approximately […] values to give the maximal cAMP signal. Decreases in cAMP levels following treatment of stimulated recombinant EP-2 cells with potential antagonist compounds were measured and potency (IC50) calculated as follows.
A Chinese hamster ovary (CHO) cell line stably transfected with full length cDNA encoding human Prostaglandin E2 was established using standard molecular biology methods. Test compounds were dissolved in dimethyl sulphoxide (DMSO) at 4 mM. 11 point half log unit increment dilution series of test compound were prepared in DMSO then diluted 1 in 40 in a buffer comprised of phosphate buffered saline (PBS) and 0.05% pluronic F-127 surfactant. Freshly cultured cells at 80-90% confluence were harvested and re-suspended in 90% growth media/10% DMSO. The cells were frozen using a planar freezer and stored in frozen aliquots in cryovials in liquid nitrogen until the day of the experiment. A vial of cells was defrosted in a 37° C. water bath for 2 min, then transferred to 10 ml of Dulbecco's Modified Eagle's Medium (DMEM). The cells were then centrifuged for 5 min at 1000 g and the pellet re-suspended at 1,000,000 cells/ml in DMEM. 5,000 cells (5 ul) were added to 5 ul of the compound dilution series in a 384 well assay plate and pre-incubated for 30 min at 37° C. 5 ul of agonist (15 nM PGE2 in PBS to give 5 nM FAC) was added and plates further incubated for 90 min at 37° C. The relative cAMP concentration in each well was then measured using a β-galactosidase enzyme fragment complementation method purchased in kit form as the Discoverx cAMP II kit from GE Healthcare, UK. […] Sigmoidal curves were fitted to plots of log10 inhibitor concentration vs. percent effect. IC50 estimates were determined as the concentration of test compound giving an effect half way between the bottom and top asymptotes of the sigmoidal dose response curve. Each experiment included an IC50 determination for the literature compound as a standard to track assay consistency and allow fair comparison between values obtained in different experiments. The EC50 of PGE2 is used in combination with the ligand concentration in the assay to determine Ki values for antagonist dose responses using the Cheng-Prusoff equation. Consequently an agonist dose response curve is carried out for each experiment using the same incubation as the antagonist plate.
With `COc1cc(OC)cc(C(=O)N2CC(Cn3nnc(-c4c(F)cccc4F)n3)(C(=O)O)C2)c1` [Example 65], the Ki – broadly, the dissociation constant of the complex between target and ligand, obtained from inhibition or displacement – was 230 nM.
Regarding `O=C(c1c(F)cccc1F)N1CC(Cn2nnc(Cc3ccc(C(F)(F)F)cc3)n2)(C(=O)O)C1` [Example 63], the Ki is 1960 nM.
With `O=C(c1ccccc1)N1CC(Cn2nnc(-c3ccc(Cl)s3)n2)(C(=O)O)C1` [Example 50] the figure was 61.4 nM; with `O=C(Nc1cccc(Cl)c1)N1CC(Cn2nnc(-c3cccc(F)c3)n2)(C(=O)O)C1` [Example 70], 386 nM.
With `O=C(c1ccc(Cl)cc1)N1CC(Cn2nnc(-c3cc(Cl)cc(Cl)c3)n2)(C(=O)O)C1` [Example 10] the figure was 1.02 nM.
With `O=C(c1ccccc1)N1CC(Cn2nnc(-c3cccc(F)c3)n2)(C(=O)O)C1` [Example 47] the figure was 152 nM.
`O=C(Nc1cccc(F)c1)N1CC(Cn2nnc(-c3ccc(Cl)s3)n2)(C(=O)O)C1` [Example 71]: the Ki was determined as 519 nM.
As to `O=C(c1ccc(F)cc1)N1CC(Cn2nnc(-c3cccc(Oc4ccccc4)c3)n2)(C(=O)O)C1` [Example 21], the inhibitory constant (Ki) came out at 141 nM.
With `CCC(=O)Nc1ccc(-c2nnn(CC3(C(=O)O)CN(C(=O)c4ccc(Cl)cc4)C3)n2)cc1` [Example 7], the Ki was found to be 0.816 nM.
As to `O=C(c1ccc(F)cc1)N1CC(Cn2nnc(-c3ccc(OC(F)F)cc3)n2)(C(=O)O)C1` [Example 30], the Ki stood at 14.7 nM.
Turning to `COc1cc(OC)cc(C(=O)N2CC(Cn3nnc(-c4ccc(C(F)(F)F)cc4)n3)(C(=O)O)C2)c1` [Example 46, 1-(3,5-Dimethoxybenzoyl)-3-({5-[4-(trifluoromethyl)phenyl]-2H-tetrazol-2-yl}methyl)azetidine-3-carboxylic acid], the Ki amounted to 44.9 nM.
Then `O=C(c1ccc(F)cc1)N1CC(Cn2nnc(-c3cc(F)cc(Cl)c3)n2)(C(=O)O)C1` [Example 43], with 13.7 nM; and `Cc1ccccc1-c1nnn(CC2(C(=O)O)CN(C(=O)c3ccc(F)cc3)C2)n1` [Example 12], with 77.8 nM.
Then `Cc1ccc(C(=O)N2CC(Cn3nnc(-c4c(F)cccc4F)n3)(C(=O)O)C2)cc1` [Example 59], with 57.9 nM; and `COc1ccc(-c2nnn(CC3(C(=O)O)CN(C(=O)c4c(F)cccc4F)C3)n2)cc1OC` [Example 64], with 230 nM; and `O=C(c1ccccc1)N1CC(Cn2nnc(-c3c(F)cccc3F)n2)(C(=O)O)C1` [Example 48], with 325 nM.
With `CCOc1ccccc1C(=O)N1CC(Cn2nnc(-c3cccc(F)c3)n2)(C(=O)O)C1` [Example 52] the figure was 446 nM.
Turning to `O=C(c1ccc(Cl)cc1)N1CC(Cn2nnc(-c3ccc(Cl)cc3)n2)(C(=O)O)C1` [Example 6], the inhibition constant Ki stood at 2.42 nM.
Then `COc1cccc(C(=O)N2CC(Cn3nnc(-c4ccc(OC)c(OC)c4)n3)(C(=O)O)C2)c1` [Example 58], with 76.3 nM; and `COc1cc(OC)cc(C(=O)N2CC(Cn3nnc(-c4ccc(OC)c(OC)c4)n3)(C(=O)O)C2)c1` [Example 66], with 222 nM.
Then `O=C(c1ccc(F)cc1)N1CC(Cn2nnc(-c3cc(C(F)(F)F)cc(C(F)(F)F)c3)n2)(C(=O)O)C1` [Example 44], with 133 nM; and `CCc1ccc(-c2nnn(CC3(C(=O)O)CN(C(=O)c4ccc(F)cc4)C3)n2)cc1` [Example 23], with 1.37 nM; and `COc1cccc(C(=O)N2CC(Cn3nnc(Cc4c(F)cccc4Cl)n3)(C(=O)O)C2)c1` [Example 57], with 959 nM.
In the case of `COc1cccc(-c2nnn(CC3(C(=O)O)CN(C(=O)c4ccc(F)cc4)C3)n2)c1` [Example 20], the Ki is 11.6 nM.
With `O=C(c1ccc(Cl)cc1)N1CC(Cn2nnc(-c3cccc(F)c3)n2)(C(=O)O)C1` [Example 3] the figure was 11.1 nM; with `COc1ccc(-c2nnn(CC3(C(=O)O)CN(C(=O)c4ccccc4)C3)n2)cc1OC` [Example 49], 41.9 nM; with `O=C(c1ccc(F)cc1)N1CC(Cn2nnc(-c3cccc(Cl)c3Cl)n2)(C(=O)O)C1` [Example 39], 39.9 nM.
With `CCC(=O)Nc1ccc(-c2nnn(CC3(C(=O)O)CN(C(=O)c4ccc(F)cc4)C3)n2)cc1` [Example 32] the figure was 10.3 nM.
Regarding `CCOc1ccccc1C(=O)N1CC(Cn2nnc(Cc3c(F)cccc3Cl)n2)(C(=O)O)C1` [Example 54], the inhibition constant Ki was found to be 783 nM.
With `CCOc1ccccc1C(=O)N1CC(Cn2nnc(-c3ccc(C(F)(F)F)cc3)n2)(C(=O)O)C1` [Example 53] the figure was 32.5 nM.
